Source: ChEMBL document CHEMBL5537135, “Novel antimicrobial peptides modified with fluorinated sulfono-γ-AA having high stability and targeting multidrug-resistant bacteria infections” (Eur J Med Chem, 2024)
Values after ≈ are worked out from the molar mass of the structure shown. Active and inactive are the calls of the source. No cut-off for these calls is given here. Numbered stars: 1 amine (or outer) side, 2 acyl side, 3 side chain; on linkers, the order of the positions; unused ones are H or OH. Square brackets hold non-standard residues; d marks the D form. Peptide text beside a SMILES is read from it. * marks the point of attachment. X3 = CC(C)C[C@@H](CN(CC(N)=O)S(=O)(=O)c1ccc(C(F)(F)F)cc1)N*; X2 = CC(C)C[C@H](N)CN(CC(=O)[*:2])[*:1]; X1 = O=S(=O)(c1ccc(C(F)(F)F)cc1)*

How the values were obtained:
[1] = system: Bacillus subtilis; assay: Antimicrobial activity against Bacillus subtilis ATCC 23857 assessed as inhibition of visible bacterial growth incubated for 18 hrs by broth-dilution method; format: functional
[2] = system: Cell membrane; assay: Induction of membrane disruption in Staphylococcus aureus ATCC 33591 assessed as membrane blebbing at 2 to 4 times MIC incubated for 24 hrs by SEM analysis; format: cell membranes
[3] = system: Staphylococcus aureus; assay: Antimicrobial activity against methicillin-resistant Staphylococcus aureus 6 assessed as inhibition of visible bacterial growth incubated for 18 hrs by broth-dilution method; format: functional
[4] = Toxicity in mouse assessed as lung lesion at 20 mg/kg, ip measured for 30 to 60 mins by H and E staining based analysis; format: organism-based; conditions: in vivo, time 30-60 min
[5] = system: Staphylococcus aureus; assay: Antimicrobial activity against methicillin-resistant Staphylococcus aureus ATCC 33591 assessed as inhibition of visible bacterial growth incubated for 18 hrs by broth-dilution method; format: functional
[6] = system: Acinetobacter baumannii; assay: Antimicrobial activity against Acinetobacter baumannii ATCC 19606 assessed as inhibition of visible bacterial growth incubated for 18 hrs by broth-dilution method; format: functional
[7] = system: Staphylococcus aureus; assay: Antimicrobial activity against methicillin-resistant Staphylococcus aureus 10 assessed as inhibition of visible bacterial growth incubated for 18 hrs by broth-dilution method; format: functional
[8] = system: Staphylococcus aureus; assay: Antimicrobial activity against Staphylococcus aureus ATCC 25923 assessed as inhibition of visible bacterial growth incubated for 18 hrs by broth-dilution method; format: functional
[9] = system: Staphylococcus aureus; assay: Antibiofilm activity against methicillin-resistant Staphylococcus aureus ATCC 33591 assessed as biofilm thickness at 2 times MIC90 incubated for 24 hrs by confocal laser scanning microscopic analysis; format: functional
[10] = system: Staphylococcus aureus; assay: Antibacterial activity against methicillin-resistant Staphylococcus aureus ATCC 33591 infected in full-thickness wound BALB/c mouse model assessed as wound healing at 0.25 to 1 mg/kg, ip administered for 1 to 48 hrs and measured after 10 days; format: functional, organism-based; conditions: dose 0.25-1 mg/kg, time 1-288 hrs
[11] = Stability in human serum assessed as half life measured for 5 hrs by RP-HPLC analysis; format: ADME, cell-free
[12] = system: Pseudomonas aeruginosa; assay: Antibiofilm activity against Pseudomonas aeruginosa ATCC 27853 assessed as biofilm eradication at 4 times MIC incubated for 1 hr by crystal violet staining based assay; format: functional, organism-based
[13] = Toxicity in mouse assessed as spleen lesion at 20 mg/kg, ip measured for 30 to 60 mins by H and E staining based analysis; format: organism-based; conditions: in vivo, time 30-60 min
[14] = system: Cell membrane; assay: Induction of membrane disruption in Staphylococcus aureus ATCC 33591 assessed as membrane shrinkage at 2 to 4 times MIC incubated for 24 hrs by SEM analysis; format: cell membranes
[15] = system: Staphylococcus aureus; assay: Antimicrobial activity against methicillin-resistant Staphylococcus aureus 5 assessed as inhibition of visible bacterial growth incubated for 18 hrs by broth-dilution method; format: functional
[16] = system: Staphylococcus aureus; assay: Antibacterial activity against methicillin-resistant Staphylococcus aureus ATCC 33591 infected in full-thickness wound BALB/c mouse model assessed as reduction in IL-6 level in skin at 0.25 to 1 mg/kg, ip administered for 1 to 48 hrs and measured after 3 days; format: functional, organism-based; conditions: dose 0.25-1 mg/kg, time 1-120 hrs
[17] = system: Staphylococcus aureus; assay: Antibacterial activity against methicillin-resistant Staphylococcus aureus ATCC 33591 infected in full-thickness wound BALB/c mouse model assessed as reduction in TNF-alpha level in skin at 0.25 to 1 mg/kg, ip administered for 1 to 48 hrs and measured after 3 days; format: functional, organism-based; conditions: dose 0.25-1 mg/kg, time 1-120 hrs
[18] = system: Staphylococcus aureus; assay: Antimicrobial activity against Staphylococcus aureus ATCC 25923 assessed as fold change in MIC in presence of salt solution; format: functional
[19] = system: Pseudomonas aeruginosa; assay: Antimicrobial activity against multidrug-resistant Pseudomonas aeruginosa 073 assessed as inhibition of visible bacterial growth incubated for 18 hrs by broth-dilution method; format: functional
[20] = system: Cell membrane; assay: Induction of membrane disruption in Pseudomonas aeruginosa ATCC 27853 assessed as membrane shrinkage at 2 to 4 times MIC incubated for 24 hrs by SEM analysis; format: cell membranes
[21] = system: Staphylococcus aureus; assay: Antibacterial activity against methicillin-resistant Staphylococcus aureus ATCC 33591 infected in full-thickness wound BALB/c mouse model assessed as log reduction in bacterial load at 0.25 mg/kg, ip administered for 1 to 48 hrs and measured after 3 days by SEM analysis; format: functional; conditions: time 1-120 hrs
[22] = system: Staphylococcus aureus; assay: Antimicrobial activity against Staphylococcus aureus ATCC 25923 assessed as reduction in bacterial growth in presence of Ca2+; format: functional
[23] = system: Pseudomonas aeruginosa; assay: Synergistic antibacterial activity against Pseudomonas […] assessed as fractional inhibitory concentration index in presence of polymyxin B by checkerboard assay; format: functional
[24] = system: Pseudomonas aeruginosa; assay: Bactericidal activity against Pseudomonas aeruginosa ATCC 27853 at 1 to 4 times MIC by time-kill assay; format: functional, organism-based
[25] = Toxicity in mouse assessed as heart lesion at 20 mg/kg, ip measured for 30 to 60 mins by H and E staining based analysis; format: organism-based; conditions: in vivo, time 30-60 min
[26] = system: Staphylococcus aureus; assay: Antimicrobial activity against Staphylococcus aureus ATCC 25923 assessed as fold increase in MIC in presence of human serum; format: functional
[27] = system: Pseudomonas aeruginosa; assay: Antibacterial activity against Pseudomonas aeruginosa ATCC 27853 infected in C57BL/6 mouse pneumonia model assessed as reduction in bacterial load in lung at 10 mg/kg, ip administered for 1 to 48 hrs and measured after 3 days; format: functional, organism-based; conditions: time 1-120 hrs
[28] = system: Pseudomonas aeruginosa; assay: Antibacterial activity against drug-susceptible Pseudomonas aeruginosa […] assessed as reduction in microbial growth; format: functional
[29] = system: Pseudomonas aeruginosa; assay: Antibacterial activity against Pseudomonas aeruginosa ATCC 27853 infected in C57BL/6 mouse pneumonia model assessed as decrease in TNF-alpha level in lung at 2.5 to 10 mg/kg, ip administered for 1 to 48 hrs and measured after 3 days; format: functional, organism-based; conditions: dose 2.5-10 mg/kg, time 1-120 hrs
[30] = system: Staphylococcus aureus; assay: Antibacterial activity against methicillin-resistant Staphylococcus aureus ATCC 33591 infected in full-thickness wound BALB/c mouse model at 0.25 to 1 mg/kg, ip administered for 1 to 48 hrs and measured after 3 days; format: functional, organism-based; conditions: dose 0.25-1 mg/kg, time 1-120 hrs
[31] = system: Pseudomonas aeruginosa; assay: Antimicrobial activity against multidrug-resistant Pseudomonas aeruginosa 061 assessed as inhibition of visible bacterial growth incubated for 18 hrs by broth-dilution method; format: functional
[32] = system: Pseudomonas aeruginosa; assay: Antimicrobial activity against multidrug-resistant Pseudomonas aeruginosa 124 assessed as inhibition of visible bacterial growth incubated for 18 hrs by broth-dilution method; format: functional
[33] = system: Pseudomonas aeruginosa; assay: Antimicrobial activity against multidrug-resistant Pseudomonas aeruginosa 050 assessed as inhibition of visible bacterial growth incubated for 18 hrs by broth-dilution method; format: functional
[34] = system: Cell membrane; assay: Disruption of membrane integrity in Staphylococcus aureus ATCC 33591 incubated for 30 mins by PI staining based CLSM analysis; format: cell membranes
[35] = system: Cell membrane; assay: Induction of membrane disruption in Pseudomonas aeruginosa ATCC 27853 assessed as membrane lysis at 2 to 4 times MIC incubated for 24 hrs by SEM analysis; format: cell membranes
[36] = system: Pseudomonas aeruginosa; assay: Antibacterial activity against Pseudomonas aeruginosa ATCC 27853 infected in C57BL/6 mouse pneumonia model assessed as decrease in IL-1beta level in lung at 2.5 to 10 mg/kg, ip administered for 1 to 48 hrs and measured after 3 days; format: functional, organism-based; conditions: dose 2.5-10 mg/kg, time 1-120 hrs
[37] = system: Pseudomonas aeruginosa; assay: Synergistic antibacterial activity against multidrug-resistant Pseudomonas aeruginosa 124 assessed as fractional inhibitory concentration index in presence of ceftazidime by checkerboard assay; format: functional

Compound | MIC [1] | MIC [3] | MIC [5] | MIC [6] | MIC [7] | MIC [8] | Activity [9] | half-life [11] | Activity [12] | MIC [15] | fold change (FC) [18] | MIC [19] | MIC [22] | fractional inhibitory concentration index (FICI) [23] | Activity [24] | fold change (FC) [26] | MIC [28] | MIC [31] | MIC [32] | MIC [33] | also measured
CC(C)C[C@H](N)CN(CC(=O)N[C@@H](CCCCN)C(=O)N[C@@H](CC(C)C)C(=O)N[C@@H](CC(C)C)C(=O)N[C@@H](CCCCN)C(=O)N[C@@H](CCCCN)C(=O)N[C@@H](CC(C)C)C(=O)N[C@@H](CC(C)C)C(N)=O)S(=O)(=O)c1ccc(C(F)(F)F)cc1 (X1-[X2]KLLKKLL-NH2) | 4 µg/mL (≈ 3.28 µM) | 4 µg/mL (≈ 3.28 µM) | 4 µg/mL (≈ 3.28 µM) | 16 µg/mL (≈ 13.1 µM) | 8 µg/mL (≈ 6.56 µM) | 4 µg/mL (≈ 3.28 µM) | 20 um | 9.22 h | Active | 4 µg/mL (≈ 3.28 µM) | 0.25 | 8 µg/mL (≈ 6.56 µM) | 32 µg/mL | 0.5 | Active | 2 | 4 µg/mL | 8 µg/mL (≈ 6.56 µM) | 4 µg/mL (≈ 3.28 µM) | 4 µg/mL (≈ 3.28 µM) | Activity [2]: Active; Activity [4]: Non-Toxic; Activity [10]: Active; Activity [13]: Non-Toxic; Activity [14]: Active; Activity [16]: Active; Activity [17]: Active; Activity [20]: Active; log(activity) [21]: 0.82; Activity [25]: Non-Toxic; Activity [27]: Active; Activity [29]: Active; Activity [30]: Active; Activity [34]: Active; Activity [35]: Active; Activity [36]: Active
CC(C)C[C@@H](CN(CC(N)=O)S(=O)(=O)c1ccc(C(F)(F)F)cc1)NC(=O)[C@H](CCCCN)NC(=O)[C@H](CCCCN)NC(=O)[C@H](CC(C)C)NC(=O)[C@H](CC(C)C)NC(=O)[C@H](CCCCN)NC(=O)[C@H](CC(C)C)NC(=O)[C@@H](N)Cc1ccccc1 (H-FLKLLKK-X3) | 4 µg/mL (≈ 3.19 µM) | 4 µg/mL (≈ 3.19 µM) | 4 µg/mL (≈ 3.19 µM) | 16 µg/mL (≈ 12.8 µM) | 8 µg/mL (≈ 6.39 µM) | 4 µg/mL (≈ 3.19 µM) | 20 um | 2.96 h | Active | 8 µg/mL (≈ 6.39 µM) | 0.25 | 16 µg/mL (≈ 12.8 µM) | 32 µg/mL | 0.75 | Active | 2 | 4 µg/mL | 8 µg/mL (≈ 6.39 µM) | 8 µg/mL (≈ 6.39 µM) | 16 µg/mL (≈ 12.8 µM) | fractional inhibitory concentration index (FICI) [37]: 0.75; Activity [34]: Active
